Measured values as given in ChEMBL document CHEMBL1201862, “PubChem BioAssay data set” (2004).
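48-hour exposure; five concentrations; linearly interpolated endpoints. GI50 marks 50% less growth.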 Calls of active or inactive are those of the source. Cut-off read from the data, not from the text of the source: active = GI50 up to about 1.1 µM and inactive = higher.

Tests used:
Assay in all cases: inhibition of tumour cell growth, NCI panel, 48 h
786-0 = test system: 786-0
A498 = test system: A498
A549 = test system: A549
ACHN = test system: ACHN
BT-549 = test system: BT-549
CAKI-1 = test system: CAKI-1
CCRF-CEM = test system: CCRF-CEM
COLO 205 = test system: COLO 205
DLD-1 = test system: DLD-1
DMS-114 = test system: DMS-114
DMS-273 = test system: DMS-273
DU-145 = test system: DU-145
EKVX = test system: EKVX
HCC 2998 = test system: HCC 2998
HCT-116 = test system: HCT-116
HCT-15 = test system: HCT-15
HL-60 = test system: HL-60
HOP-18 = test system: HOP-18
HOP-62 = test system: HOP-62
HOP-92 = test system: HOP-92
HT-29 = test system: HT-29
Hs-578T = test system: Hs-578T
IGROV-1 = test system: IGROV-1
K562 = test system: K562
KM-20L2 = test system: KM-20L2
KM12 = test system: KM12
LOX IMVI = test system: LOX IMVI
LXFL 529 = test system: LXFL 529
M14 = test system: M14
M19-MEL = test system: M19-MEL
MCF7 = test system: MCF7
MDA-MB-231 = test system: MDA-MB-231
MDA-MB-435 = test system: MDA-MB-435
MDA-N = test system: MDA-N
MOLT-4 = test system: MOLT-4
Malme-3M = test system: Malme-3M
NCI-H226 = test system: NCI-H226
NCI-H23 = test system: NCI-H23
NCI-H460 = test system: NCI-H460
NCI-H522 = test system: NCI-H522
NCI/ADR-RES = test system: NCI/ADR-RES
OVCAR-3 = test system: OVCAR-3
OVCAR-4 = test system: OVCAR-4
OVCAR-5 = test system: OVCAR-5
OVCAR-8 = test system: OVCAR-8
PC-3 = test system: PC-3
RPMI-8226 = test system: RPMI-8226
RXF 393 = test system: RXF 393
RXF 631 = test system: RXF 631
SF-268 = test system: SF-268
SF-295 = test system: SF-295
SF-539 = test system: SF-539
SK-MEL-28 = test system: SK-MEL-28
SK-MEL-2 = test system: SK-MEL-2
SK-MEL-5 = test system: SK-MEL-5
SK-OV-3 = test system: SK-OV-3
SN12C = test system: SN12C
SNB-19 = test system: SNB-19
SNB-75 = test system: SNB-75
SNB-78 = test system: SNB-78
SR = test system: SR
SW-620 = test system: SW-620
T47D = test system: T47D
TK-10 = test system: TK-10
U-251 = test system: U-251
UACC-257 = test system: UACC-257
UACC-62 = test system: UACC-62
UO-31 = test system: UO-31
XF498 = test system: XF498

Measured: GI50

C=C1C(=O)OC2/C=C(CO)/C=C\C3OC3(C)CC(OC(=O)/C(C)=C/COC(C)=O)C12 (stereo unspecified)
active: DLD-1 0.773 µM | HL-60 0.34 µM | MOLT-4 0.802 µM | NCI-H522 0.692 µM | RPMI-8226 0.716 µM | SR 0.56 µM
1.87 µM: HCT-15
inactive: 786-0 1.97 µM | A498 7.43 µM | A549 11.9 µM | ACHN 3.14 µM | BT-549 1.57 µM | CAKI-1 2.76 µM | CCRF-CEM 1.26 µM | COLO 205 1.6 µM | DMS-114 4.35 µM | DMS-273 1.97 µM | DU-145 16.6 µM | EKVX 3.78 µM | HCC 2998 13.4 µM | HCT-116 1.5 µM | HOP-18 9.38 µM | HOP-62 20 µM | HOP-92 2.62 µM | HT-29 2.52 µM | Hs-578T 3.08 µM | IGROV-1 7.8 µM | K562 3.3 µM | KM-20L2 4.7 µM | KM12 5.28 µM | LOX IMVI 1.34 µM | LXFL 529 1.58 µM | M14 2.3 µM | M19-MEL 1.84 µM | MCF7 3.15 µM | MDA-MB-231 2.66 µM | MDA-MB-435 2 µM | MDA-N 1.75 µM | Malme-3M 1.77 µM | NCI-H226 12.2 µM | NCI-H23 3.08 µM | NCI-H460 5.69 µM | NCI/ADR-RES 3.97 µM | OVCAR-3 2.46 µM | OVCAR-4 3.99 µM | OVCAR-5 13.9 µM | OVCAR-8 2.47 µM | PC-3 10 µM | RXF 393 1.85 µM | RXF 631 2.74 µM | SF-268 4.04 µM | SF-295 14.8 µM | SF-539 1.96 µM | SK-MEL-28 1.73 µM | SK-MEL-2 3.75 µM | SK-MEL-5 5 µM | SK-OV-3 17.8 µM | SN12C 2.21 µM | SNB-19 12.5 µM | SNB-75 7.8 µM | SNB-78 4.08 µM | SW-620 1.37 µM | T47D 2.65 µM | TK-10 5.16 µM | U-251 3.95 µM | UACC-257 2.37 µM | UACC-62 2.2 µM | UO-31 6.11 µM | XF498 2.47 µM

O=Cc1cn(S(=O)(=O)c2ccccc2)c2ccccc12
inactive: 786-0 55.5 µM | A498 > 100 µM | A549 > 100 µM | ACHN > 100 µM | CCRF-CEM 23.3 µM | DLD-1 27.2 µM | DMS-114 24.8 µM | EKVX > 100 µM | HCC 2998 > 100 µM | HCT-116 20 µM | HL-60 16.7 µM | HOP-18 32.4 µM | HOP-62 > 100 µM | HT-29 55.5 µM | IGROV-1 > 100 µM | K562 19.9 µM | KM-20L2 > 100 µM | KM12 86.5 µM | LOX IMVI 20.6 µM | LXFL 529 36.4 µM | M14 31.3 µM | M19-MEL 37.5 µM | MOLT-4 16.3 µM | Malme-3M 34.5 µM | NCI-H226 70.3 µM | NCI-H23 26.4 µM | NCI-H460 > 100 µM | OVCAR-3 41 µM | OVCAR-4 33.6 µM | OVCAR-5 > 100 µM | OVCAR-8 33.5 µM | RPMI-8226 20.8 µM | RXF 393 95.5 µM | RXF 631 53.7 µM | SF-268 25.5 µM | SF-295 48.3 µM | SF-539 27.5 µM | SK-MEL-28 32.4 µM | SK-OV-3 > 100 µM | SN12C 42.4 µM | SNB-19 54.2 µM | SNB-75 26.2 µM | SNB-78 41.3 µM | SR 20.1 µM | SW-620 35.5 µM | TK-10 > 100 µM | U-251 27.6 µM | UACC-257 29.6 µM | UACC-62 26.9 µM | UO-31 18.7 µM | XF498 46 µM
35.2 µM: HCT-15
